Results: patent US20120172339A1, “ANGIOGENIC RESORCINOL DERIVATIVES” (Northeastern University, priority 2009, published 2012)
Like-named read-outs stand apart in the source and are kept apart here.

Experiments:
CB1 cannabinoid receptor = CB1 cannabinoid receptor (Homo sapiens, UniProt P21554); assay: CB1 receptor binding affinity
Description: (§1) Some disclosed compounds were tested for CB1 and CB2 receptors binding affinity (Table 5). As used herein “binding affinity” is represented by the Ki value. The Ki value is the affinity constant and describes the affinity of the compound for the receptor. […] A detailed description of the methods used to test “binding affinity” of compounds is given in Makriyannis, et al., US 2007, 0135388 and in Papahatjis, et al. J. Med. Chem. (2007) 4048, the content of each of which is hereby incorporated by reference.

CB2 cannabinoid receptor = CB2 cannabinoid receptor (Homo sapiens, UniProt P34972); assay: CB2 receptor binding affinity
Description: as §1

CB1-KO-HUVEC cells = assay: MMP (matrix metalloproteinase) activity in CB1-KO-HUVEC; assay type: cell-based, human; conditions: FIGS. 7 and 8, read-out: EC50 for induction of MMP activity
Text: For aspects disclosed herein, promotion of angiogenic responses under in vitro and ex vivo conditions as well as increasing in MMP (matrix metalloproteinase) activity, correlates well with the ability of anandamide and its synthetic analog (R)-methanandamide to bind to and modulate the putative “non CB1/non CB2 anandamide receptor”. Thus, the compounds described herein where tested using in vitro angiogenesis assays (cord formation by endothelial cells in extracellular matrix mimicking matrigel), ex vivo angiogenesis assay (sprouting or blood capillary formation under ex vivo conditions) as well as for MMP activity in CB1 receptor knock out human umbilical vein endothelial cells (HUVEC) (CB1-KO-HUVEC).
Some disclosed compounds were tested using in vitro angiogenesis assays (cord formation by endothelial cells in extracellular matrix mimicking matrigel, Table 4), ex vivo angiogenesis assay (sprouting or blood capillary formation under ex vivo conditions, Table 4) as well as for MMP (matrix metalloproteinase) activity in CB1 receptor knock out human umbilical vein endothelial cells (HUVEC) (CB1-KO-HUVEC, Figures A and B). Stimulation of angiogenic responses under in vitro and ex vivo conditions as well as increasing in MMP activity, correlates well with the ability of the compound to bind to and modulate the putative “non CB1/non CB2 anandamide receptor”. […] A detailed description of the angiogenesis and MMP activity assays is given in Mukhopadhyay (US 2007, 0244200, and Balas, et al., J. Med. Chem. (2009) ASAP the content of each of which is hereby incorporated by reference.

Sequence of CB1 cannabinoid receptor (P21554 whole entry): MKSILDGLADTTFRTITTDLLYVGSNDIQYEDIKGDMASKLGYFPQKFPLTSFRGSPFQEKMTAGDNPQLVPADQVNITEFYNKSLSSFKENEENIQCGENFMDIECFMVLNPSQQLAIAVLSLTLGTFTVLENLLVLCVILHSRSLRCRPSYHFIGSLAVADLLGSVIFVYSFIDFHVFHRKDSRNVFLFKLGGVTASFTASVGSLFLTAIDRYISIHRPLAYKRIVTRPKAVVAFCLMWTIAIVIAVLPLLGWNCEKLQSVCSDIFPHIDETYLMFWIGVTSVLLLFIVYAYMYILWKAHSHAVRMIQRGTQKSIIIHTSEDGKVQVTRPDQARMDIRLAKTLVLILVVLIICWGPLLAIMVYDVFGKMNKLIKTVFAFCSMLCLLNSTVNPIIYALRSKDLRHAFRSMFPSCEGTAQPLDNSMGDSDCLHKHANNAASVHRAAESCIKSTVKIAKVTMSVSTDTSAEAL
Sequence of CB2 cannabinoid receptor (P34972 whole entry): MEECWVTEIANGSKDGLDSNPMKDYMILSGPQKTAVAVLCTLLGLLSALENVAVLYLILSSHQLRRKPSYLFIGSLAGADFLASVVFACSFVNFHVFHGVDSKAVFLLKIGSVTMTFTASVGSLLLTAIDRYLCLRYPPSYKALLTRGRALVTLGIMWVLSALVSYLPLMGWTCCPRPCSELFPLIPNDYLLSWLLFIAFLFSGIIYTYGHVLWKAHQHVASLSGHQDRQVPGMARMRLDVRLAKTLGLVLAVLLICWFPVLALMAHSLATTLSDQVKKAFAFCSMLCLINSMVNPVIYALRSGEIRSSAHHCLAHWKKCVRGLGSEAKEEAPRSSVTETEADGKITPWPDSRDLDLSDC

SMILES	Ki (CB1 cannabinoid receptor; read-out: CB1 Receptor Ki) [µM]	Ki (CB2 cannabinoid receptor; read-out: CB2 Receptor Ki) [µM]	also measured
C=C(C)[C@@H]1CCC(C)=C[C@H]1c1c(O)cc(O)cc1CC#N			melting point: 131 to 133 °C
[2H]C([2H])([2H])CCc1cc(O)cc(O)c1[C@@H]1C=C(C)CC[C@H]1C(=C)C (relative stereo) [Compound 4.5, (−)-4-[3-3,4-trans-p-Menthadien-(1,8)-yl]-5-[3′-(^2H3)-propyl]resorcinol]	> 20	19	
[2H]C([2H])([2H])CCc1cc(O)c([C@@H]2C=C(C)CC[C@H]2C(=C)C)c(O)c1 (relative stereo) [Compound 3.5, (−)-2-[3-3,4-trans-p-Menthadien-(1,8)-yl]-5-[3′-(^2H3)-propyl]resorcinol]	8.39	2.58	
CCCCCc1cc(O)c([C@@H]2C=C(C)[C@@H]3C[C@H]2C3(C)C)c(O)c1 [Compound 11.2, (−)-2-[(1S, 4R, 5R)-2,6,6-trimethylbicyclo[3.1.1]hept-2-en-4-yl]-5-pentyl-resorcinol]	0.837	0.565	
C=C(C)[C@@H]1CCC(C)=C[C@H]1c1c(O)cc(CBr)cc1O (relative stereo) [Compound 3.12, (−)-2-[3-3,4-trans-p-Menthadien-(1,8)-yl]-5-(bromomethyl)resorcinol]	2.2	10.8	
C=C(C)[C@@H]1CCC(C)=C[C@H]1c1c(O)cc(/C=C\CCCCC)cc1O [Compound 3.6, (−)-2-[3-3,4-trans-p-Menthadien-(1,8)-yl]-5-(1,2-cis-hepten-1-yl)resorcinol]			EC50 (CB1-KO-HUVEC cells; Homo sapiens): 0.05 to 0.07 µM
C=C(C)[C@@H]1CCC(C)=C[C@H]1c1c(O)cc(O)cc1CCCCC (relative stereo) [Compound 4.2, (−)-4-[3-3,4-trans-p-Menthadien-(1,8)-yl]-5-pentylresorcinol, reference compound]			Ki (CB1 cannabinoid receptor): 4.78 µM; Ki (CB2 cannabinoid receptor): 9.64 µM
C=C(C)[C@@H]1CCC(C)=C[C@H]1c1c(O)cc(O)cc1F (relative stereo) [Compound 4.8, (−)-4-[3-3,4-trans-p-Menthadien-(1,8)-yl]-5-flouororesorcinol]	4.15	7.21	melting point: 105 to 106 °C
C=C(C)[C@@H]1CCC(C)=C[C@H]1c1c(O)cc(I)cc1O (relative stereo) [Compound 3.11, (−)-2-[3-3,4-trans-p-Menthadien-(1,8)-yl]-5-iodoresorcinol]	5.13	2.19	melting point: 128 to 130 °C
C=C(C)[C@@H]1CCC(C)=C[C@H]1c1c(O)cc(CCCCCCC)c([C@@H]2C=C(C)CC[C@H]2C(=C)C)c1O (relative stereo) [Compound 5.3, 2,4-bis-[3-3,4-trans-p-Menthadien-(1,8)-yl]-5-heptylresorcinol]	> 10	> 10	EC50 (CB1-KO-HUVEC cells; Homo sapiens): 0.05 to 0.07 µM
CCCCCc1cc(O)c([C@H]2C=C(C)[C@H]3C[C@@H]2C3(C)C)c(O)c1 [Compound 8.2, (+)-2-[(1R, 4S, 5S)-2,6,6-trimethylbicyclo[3.1.1]hept-2-en-4-yl]-5-pentyl-resorcinol]			EC50 (CB1-KO-HUVEC cells; Homo sapiens): 0.05 to 0.07 µM
C=C(C)[C@@H]1CCC(C)=C[C@H]1c1c(O)cc(CC(=O)OC)cc1O (relative stereo) [Compound 3.14, (−)-2-[3-3,4-trans-p-Menthadien-(1,8)-yl]-5-(2-methoxy-2-oxoethyl)resorcinol]	2.37	0.62	
C=C(C)[C@@H]1CCC(C)=C[C@H]1c1c(O)cc(O)cc1Br (relative stereo) [Compound 4.10, (−)-4-[3-3,4-trans-p-Menthadien-(1,8)-yl]-5-bromoresorcinol]	7.46	13.3	
C=C(C)[C@@H]1CCC(C)=C[C@H]1c1c(O)cc(F)cc1O (relative stereo) [Compound 3.8, (−)-2-[3-3,4-trans-p-Menthadien-(1,8)-yl]-5-flouororesorcinol]	14.6	43.4	EC50 (CB1-KO-HUVEC cells; Homo sapiens): 0.05 to 0.07 µM
CCCCCc1cc(O)cc(O)c1[C@@H]1C=C(C)[C@@H]2C[C@H]1C2(C)C [Compound 12.2]	10.1	19	
C=C(C)[C@@H]1CCC(C)=C[C@H]1c1c(O)cc(CN=[N+]=[N-])cc1O (relative stereo) [Compound 3.15, (−)-2-[3-3,4-trans-p-Menthadien-(1,8)-yl]-5-(azidomethyl)resorcinol]	3.56	2.03	EC50 (CB1-KO-HUVEC cells; Homo sapiens): 0.05 to 0.07 µM
C=C(C)[C@@H]1CCC(C)=C[C@H]1c1c(C)cc(O)cc1O (relative stereo) [Compound 4.1, (−)-4-[3-3,4-trans-p-Menthadien-(1,8)-yl]-5-methylresorcinol]	10	31.1	
C=C(C)[C@@H]1CCC(C)=C[C@H]1c1c(O)cc(CC#N)cc1O (relative stereo) [Compound 3.13, (−)-2-[3-3,4-trans-p-Menthadien-(1,8)-yl]-5-(cyanomethyl)resorcinol]	1.44	4.2	
C=C(C)[C@@H]1CCC(C)=C[C@H]1c1c(O)cc(O)cc1CCCCCCC (relative stereo) [Compound 4.3, (−)-4-[3-3,4-trans-p-Menthadien-(1,8)-yl]-5-heptylresorcinol]			Ki (CB1 cannabinoid receptor): 0.25 µM; Ki (CB2 cannabinoid receptor): 0.398 µM
C=C(C)[C@@H]1CCC(C)=C[C@H]1c1c(O)cc(O)cc1O (relative stereo) [Compound 3.7, (−)-2-[3-3,4-trans-p-Menthadien-(1,8)-yl]-5-hydroxyresorcinol]	21.5	41.7	
C=C(C)[C@@H]1CCC(C)=C[C@H]1c1c(O)cc(CCCCCCC)cc1O (relative stereo) [Compound 3.3, (−)-2-[3-3,4-trans-p-Menthadien-(1,8)-yl]-5-heptylresorcinol]			Ki (CB1 cannabinoid receptor): 0.651 µM; Ki (CB2 cannabinoid receptor): 1.42 µM
CCCCC/C=C\C/C=C\C/C=C\C/C=C\CCCC(=O)N[C@H](C)CO [(R)-methanandamide, reference compound]			EC50 (CB1-KO-HUVEC cells): ~0.042 µM
C=C(C)[C@@H]1CCC(C)=C[C@H]1c1c(O)cc(O)cc1Cl (relative stereo) [Compound 4.9, (−)-4-[3-3,4-trans-p-Menthadien-(1,8)-yl]-5-chlororesorcinol]	3.18	4.97	melting point: 101 to 103 °C
C=C(C)[C@@H]1CCC(C)=C[C@H]1c1c(O)cc(CCCCBr)cc1O (relative stereo) [Compound 3.16, (−)-2-[3-3,4-trans-p-Menthadien-(1,8)-yl]-5-(4-bromobutyl)resorcinol]			Ki (CB1 cannabinoid receptor): 0.192 µM; Ki (CB2 cannabinoid receptor): 0.059 µM
C=C(C)[C@@H]1CCC(C)=C[C@H]1c1c(O)cc(O)cc1CCCCBr (relative stereo) [Compound 4.16]	12.5	5.73	
CCCCCc1cc(O)cc(O)c1[C@H]1C=C(C)[C@H]2C[C@@H]1C2(C)C [Compound 9.2, (+)-4-[(1R, 4S, 5S)-2,6,6-trimethylbicyclo[3.1.1]hept-2-en-4-yl]-5-pentyl-resorcinol]	9.25	4.94	
C=C(C)[C@@H]1CCC(C)=C[C@H]1c1c(O)cc(O)cc1I (relative stereo) [Compound 4.11, (−)-4-[3-3,4-trans-p-Menthadien-(1,8)-yl]-5-iodoresorcinol]	13.1	10.5	EC50 (CB1-KO-HUVEC cells; Homo sapiens): 0.05 to 0.07 µM
C=C(C)[C@@H]1CCC(C)=C[C@H]1c1c(O)cc(C)cc1O (relative stereo) [Compound 3.1, (−)-2-[3-3,4-trans-p-Menthadien-(1,8)-yl]-5-methylresorcinol]	16.7	47.7	
